Source: patent US12629419B2, “Prevention or mitigation of T-cell engaging agent-related adverse effects” (Hoffmann-La Roche Inc., priority 2020, dated 2026)
Entries after “also recorded” stand apart in the source; their conditions may differ.

Legend:
NALM-6 tumors cells = assay: CD19-TCB killing assay with NALM-6 cells, inhibitors added after 24 hrs of activation: killing; format: cell-based; conditions: 100 nM added at 24 hrs; measured at 48 hrs
Description: (§1) FIG. 78. In vitro killing assay set-up. PBMCs were co-cultured with CTV labelled NALM-6 cells (E:T=10:1) in the presence of escalating concentrations of CD19-TCB for 24 hrs. At 24 hrs, the culture medium was supplemented with 100 nM dasatinib, 100 nM sirolimus or 100 nM ruxolitinib.
(§2) To assess whether the mTOR inhibitor sirolimus, the JAK1/2 inhibitor ruxolitinib and the Src inhibitor dasatinib can prevent further release of cytokines induced by the treatment of CD19-TCB, they were added in an in vitro killing assay after 24 hrs of activation (FIG. 78). In this assay CTV labelled NALM-6 tumors cells were co-cultured with PBMCs in the presence of escalating doses of CD19-TCB for 24 hrs. At 24 hrs, 100 nM ruxolitinib, 100 nM sirolimus or 100 nM dasatinib were added in the system. To verify if T cells were activated before the addition of the different kinase inhibitors, tumor cell killing and cytokine release were measured at 24 hrs (FIGS. 79 and 80). Lastly, cytokine release and tumor cell killing were measured at 48 hrs to assess the effect of the addition of 100 nM ruxolitinib, 100 nM sirolimus or 100 nM dasatinib on CD19-TCB-induced cytokine release as compared to the effect on killing.

[1] = test system: lymphoma patient derived xenograft (PDX); assay: CD19-TCB anti-tumor activity in lymphoma PDX bearing humanized NSG mice; format: in vivo; conditions: sirolimus 5 mg/kg, p.o.; for anti-tumor activity in combination with CD19-TCB (0.5 mg/kg): ruxolitinib 30 mg/kg, dasatinib 20 mg/kg, dexamethasone, transient use
Description: (§3) FIG. 89. In vivo experiment timelines and dosing schedule. Humanized NSG mice were engrafted with a lymphoma PDX (5 million cells, s.c.). […] The kinase inhibitors were given twice on the day of the first CD19-TCB administration (D16, once 1 hour before CD19-TCB, and once afterwards), and then once (sirolimus) or twice (dasatinib, ruxolitinib) on the two following days (D17 and D18), as well as once 1 hour before each subsequent CD19-TCB administration.
(§4) First, we verified if the PDX cells were killed upon treatment with CD19-TCB in vitro, using a killing assay. The lymphoma PDX cells were co-cultured together with PBMCs (E:T=10:1) in the presence of CD19-TCB. […] Moreover, they were also administered one hour before each subsequent treatment to prevent residual cytokine secretion (FIG. 89).

[2] = test system: CD19-TCB-induced cytokine release; assay: CD19-TCB NALM-6 assay, inhibitors added after 24 hrs: cytokine release; format: cell-based; conditions: 100 nM added at 24 hrs; between 24 hrs and 48 hrs
Description: as §1, §2

[3] = test system: CD19-TCB-induced cytokine release; assay: CD19-TCB-induced cytokine release in humanized NSG mice (serum, Luminex); format: in vivo; conditions: serum 6 hrs post treatment with CD19-TCB
Description: (§5) FIG. 81. In vivo experiment timelines and dosing schedule.
(§6) To best reproduce the pharmacodynamic profile of ruxolitinib, dasatinib and sirolimus in the clinic and to verify whether the resulting exposure would be sufficient to prevent CD19-TCB-induced cytokine release, dasatinib and ruxolitinib were given per os twice per day, and sirolimus was given per os twice per day on day 1 and then once per day.

CD20+ B cells = assay: CD19-TCB-induced B cell depletion in humanized NSG mice; format: in vivo; conditions: for CD19-TCB-induced B cell depletion in blood: co-treatment with 0.5 mg/kg CD19-TCB; for CD19-TCB-induced CD20+ B cell depletion in the spleen: 72 hrs (termination)
Description: as §5, §6
At 48 hrs and 72 hrs, blood was collected by tail-vein bleeding and the CD20+ B cell count was measured by flow cytometry (FIGS. 82A and B) to assess the effect of the different treatments on CD19-TCB-induced B cell depletion. […] Its half-life being around 6-7 hrs and dasatinib being given only twice per day, a lack of exposure could likely explain that CD19-TCB was partially active, resulting in B cell depletion. At experiment termination (72 hrs), spleens were collected and the B cell count was measured by flow-cytometry (FIG. 83). […] However, their inhibitory effect was stronger than methylprednisolone (FIG. 83).

[4] = test system: CD19-TCB-mediated cytokine release; assay: cytokine release upon first CD19-TCB infusion in lymphoma PDX bearing mice (serum); format: in vivo; conditions: for effects on cytokine levels: compared with obinutuzumab pre-treatment
Description: as §3
FIG. 94. […] Cytokine levels were measured by Luminex in serum collected 6 hrs post first infusion with CD19-TCB. Mean of n=6-8 mice+SD with *p≤0.05, **p<0.01, ***p<0.001 by 1 way ANOVA (Kruskal Wallis test).
as §4

[5] = test system: cytokine release induced by CAR-T cells; assay: cytokine release induced by PGLALA and CD16 CAR-T cells (Luminex); format: cell-based; conditions: 100 nM inhibitor
Description: (§7) FIG. 62. Effect of 100 nM ruxolitinib and 100 nM sirolimus on GM-CSF (A), IFN-γ (B), IL-2 (C) and TNF-α (D) induced by PGLALA CAR-T cells. PGLALA CAR-T cells were co-cultured together with CTV labelled WSU tumor cells (E:T=10:1) and escalating concentrations of PGLALA-Fc anti-CD20 IgG in the presence and absence of 100 nM ruxolitinib (ruxo) or 100 nM sirolimus (siro) respectively. At 24 hours, the supernatants from technical replicates were pooled and cytokines were analyzed by Luminex. Mean of n=2 donors.
as §7, with “63.” for “62.”, “CD16” for “PGLALA”, “wild-type Fc” for “PGLALA-Fc”, “(siro).” for “(siro) respectively.”
To assess the impact of JAK inhibitor ruxolitinib and mTOR inhibitor sirolimus on cytokine release induced by CAR-T cells, we conducted a killing assay where PGLALA and CD16 universal CAR-T cells (CAR-T cells with a CAR comprising an anti-P329G-Fc scFv (binding to PGLALA Fc) or CD16 (binding to wild-type Fc)) were co-cultured with CTV WSU tumor cells in the presence of escalating concentrations of PGLALA Fc and wild-type Fc anti-CD20 IgG in medium supplemented with 100 nM ruxolitinib or 100 nM sirolimus. To verify whether ruxolitinib and sirolimus interfered with tumor cell killing by CAR-T cells, we measured killing of CTV WSU tumor cells by flow cytometry at 24 hours.

[6] = 48 hrs, p.o.: 6×30 mg/kg ruxolitinib, 4×5 mg/kg sirolimus, dexamethasone, methylprednisolone
[7] = 72 hrs, dasatinib 6×50 mg/kg p.o.
[8] = serum 6 hrs post first infusion with CD19-TCB, ruxolitinib 30 mg/kg

SMILES | CTV labelled NALM-6 tumor cell killing (NALM-6 tumors cells) | anti-tumor activity in combination with CD19-TCB (0.5 mg/kg) [1] | further release of IFN-γ, TNF-α and IL-6 [2] | CD19-TCB-induced IFN-γ and IL-6 release [3] | CD19-TCB-induced IL-2 and TNF-α [3] | CD19-TCB-induced B cell depletion in blood (CD20+ B cells; [6]) | CD19-TCB-induced CD20+ B cell depletion in the spleen (CD20+ B cells) | CD19-TCB-induced B cell depletion in blood (CD20+ B cells; [7]) | effects on cytokine levels [4] | IFN-γ, TNF-α and IL-2 release [4, 8] | IL-6 release [4, 8] | release of IFN-γ, TNF-α and GM-CSF ([5]; CD16 CAR-T cells) | release of IFN-γ, TNF-α and GM-CSF ([5]; PGLALA CAR-T cells) | tumor growth, given as a single agent ([1]; dexamethasone 1, 0.5, 0.25 mg/kg) | further release of IFN-γ, TNF-α, IL-2 and IL-6 [2] | IL-2, IFN-γ, TNF-α and IL-6 release upon the first infusion ([4]; serum 6 hrs post first infusion with CD19-TCB) | release of IL-2 ([5]; CD16 CAR-T cells) | release of IL-2 ([5]; PGLALA CAR-T cells)
N#CC[C@H](C1CCCC1)n1cc(-c2ncnc3[nH]ccc23)cn1 [ruxolitinib, Ruxolitinib] | did not prevent | minimally interfered; also recorded: did not impair | only prevented further release | comparable to the pre-treatement with obinutuzumab | slightly weaker | slightly prevented | only partially prevented | comparable to the effect dexamethasone | stronger than the effect of obinutuzumab pre-treatment | to a lower extent | decreased | reduced | reduced | – | – | – | – | –
CO[C@H]1C[C@@H]2CC[C@@H](C)[C@@](O)(O2)C(=O)C(=O)N2CCCC[C@H]2C(=O)O[C@H]([C@H](C)C[C@@H]2CC[C@@H](O)[C@H](OC)C2)CC(=O)[C@H](C)/C=C(\C)[C@@H](O)[C@@H](OC)C(=O)[C@H](C)C[C@H](C)/C=C/C=C/C=C/1C [sirolimus, Sirolimus] | did not prevent | comparable to CD19-TCB alone; also recorded: did not impair | – | comparable to the pre-treatement with obinutuzumab | comparable to the pre-treatement with Gazyva® | slightly prevented | only partially prevented | comparable to the effect dexamethasone | stronger than the effect of obinutuzumab pre-treatment | – | – | strongly reduced | strongly reduced | reduction in tumor growth, yet not significant | prevented further release | suppressed | strongly reduced | strongly reduced
